Structures are written as SMILES.

The values below come from patent publication US7576101B2, “Composition for and treatment of demyelinating diseases and paralysis by administration of remyelinating agents” (Elan Pharmaceuticals, Inc., priority 2003, dated 2009).

In series [1] the test system is experimental allergic encephalomyelitis in female Hartley guinea pigs. Put plainly: Chronic EAE in guinea pigs: histological analysis and pathological score of brain and spinal cord. The class given is in vivo, guinea pig. The conditions noted are these: for spinal cord histology after 20 days of treatment (day 60 post immunization) / spinal cord histology after 40 days of treatment (day 80 post immunization): SCR and H-E sections, vs saline. Here is the method:
Animal Sacrifice and Histological Analysis. Untreated, chronic EAE animals (n=5) were sacrificed on day 40, as well as non-EAE controls (n=5). Following each 10-day treatment interval, 5 animals from each group were sacrificed (0.25 mL sodium pentobarbital), blood samples were collected for FACS analysis (see below), and the brain and spinal cord dissected and sectioned. Three spinal sections were used, corresponding to lumbar, thoracic and cervical regions of the cord. The brain was cut into five transverse sections. The first three proximal sections were combined in one block, and the last two distal sections in another. Tissues were fixed in 10% formalin and embedded in paraffin. […] sections were stained with hematoxylin-eosin (H-E) or solochrome-R-cyanlin (SCR) and evaluated by a blinded observer in each of four categories: (1) meningeal inflammation, (2) perivascular infiltration, (3) encephalitis or (4) myelitis and demyelination (Table 6). The combined pathological score represents the total score (out of a potential 20) from all 5 CNS sections in each animal.
(§1) Statistical Analysis. Statistical analysis was performed using SigmaStat v2 software (SPSS Inc.). Clinical scores were assessed using the Mann Whitney rank sum test, while pathological scores were assessed with a two-Way ANOVA. Quantitative abnormalities were compared using Kruskal-Wallis ANOVA on ranks. In each case, p<0.05 was considered significant. A linear regression was performed on the mean cell counts in the spinal cord.

The test system is the same in series [2]. Put plainly: Chronic EAE in guinea pigs: mean cell counts in spinal cord (H-E sections). The series is classed as in vivo, guinea pig. The conditions noted are these: for cell number in spinal cord vs saline-treated animals: after 10, 20, 30 or 40 days of therapy, p<0.001 two-way ANOVA; for mean cell count in spinal cord 10 days after removal vs continuous treatment: p<0.05 ANOVA on ranks with SNK test. Here is the method:
To quantify the abnormalities observed in the spinal cord, sections stained with H-E were divided into 12 representative pie-shaped areas. In each area, the number of cells within a 0.12 mm^2 field of view was counted using Sigma Scan Pro image analysis software (SPSS Inc.), and the combined mean number of cells in all 12 areas was calculated for the whole spinal cord (36 fields of view per animal). Note that as all cell nuclei were counted, the number of cells may include neurons and glial cells in addition to infiltrates.
as §1

The next series addresses T1, α4β1 (Homo sapiens, UniProt P05556+P13612).
T1 construct: endogenous in cells; host or cells: Jurkat cells
Put plainly: In vitro saturation assay for determining binding of candidate compounds to α4β1 (Jurkat cells in plasma, 15/7 antibody, FACS). The series is classed as cell-based. The conditions noted are these: guinea pig, 30 mg/kg twice a day subcutaneously. Here is the method: The following describes an in vitro assay to determine the plasma levels needed for a compound to be active in the Experimental Autoimmune Encephalomyelitis (“EAE”) model, described in the next example, or in other in vivo models.
Log-growth Jurkat cells are washed and resuspended in normal animal plasma containing 20 μg/ml of the 15/7 antibody (described in the above example).
The Jurkat cells are diluted two-fold into either normal plasma samples containing known candidate compound amounts in various concentrations ranging from 66 μg/mL to 0.01 μg/mL, using a standard 12 point serial dilution for a standard curve, or into plasma samples obtained from the peripheral blood of candidate compound-treated animals.
Cells are then incubated for 30 minutes at room temperature, washed twice with phosphate-buffered saline (“PBS”) containing 2% fetal bovine serum and 1 mM each of calcium chloride and magnesium chloride (assay medium) to remove unbound 15/7 antibody. […]
Cells are washed twice with assay medium and resuspended in the same. They are then analyzed with a standard fluorescence activated cell sorter analysis as described in Yednock et al., J. Bio. […]
The data is then graphed as fluorescence versus dose, e.g., in a normal dose-response fashion. […]

Series [3] deals with guinea pig model of CP-EAE. Put plainly: Remyelination and functional recovery in guinea pig model of CP-EAE. The class given is in vivo. The source says: The number of lesions showing myelin pallor was divided by the total number of lesions within cross sections of spinal cord taken throughout its length from each animal (FIG. 10) (for the method see Warrington et al., 2000, Proc. Nat'l Acad. Sci. USA 97: 6820-5). […] In contrast, after 20 days of N-[N-(3-pyridinesulfonyl)-L-3,3-dimethyl-4-thiaprolyl]-O-[1-methylpiperazin-4-ylcarbonyl]-L-tyrosine isopropyl ester administration, the frequency of shadow plaques in the spinal cord was increased over saline-treated animals, reaching 68%; after 30 and 40 days, the incidence was 77% and 87%, respectively (p<0.001, 2-way ANOVA with Tukey test).
The overall degree of plaque remyelination in the spinal cord was also measured. […] Total lesion area was determined for each animal by tracing all lesions within all spinal cord sections and summing the areas. Likewise, the total area of remyelination was measured by tracing regions of myelin pallor. FIGS. 10C-F plot the total lesion area against the percentage of remyelination. In saline-treated animals, lesions rarely show any evidence of repair, with means ranging between 2 and 11%, and there were no significant differences over the 40-day treatment period (FIGS. 10C-F). In contrast, after 20, 30 or 40 days of N-[N-(3-pyridinesulfonyl)-L-3,3-dimethyl-4-thiaprolyl]-O-[1-methylpiperazin-4-ylcarbonyl]-L-tyrosine isopropyl ester treatment, the majority of lesions identified show a variable degree of remyelination ranged from 2 to 100% in the majority of lesions (mean area of remyelination approximately 50%) (FIGS. 10D-5). (p<0.001, 2-way ANOVA with Tukey test). Therefore while lesions were evident in all animals throughout the 40-day treatment period, N-[N-(3-pyridinesulfonyl)-L-3,3-dimethyl-4-thiaprolyl]-O-[1-methylpiperazin-4-ylcarbonyl]-L-tyrosine isopropyl ester increased the incidence and percentage of remyelination. Furthermore, evidence of remyelination in N-[N-(3-pyridinesulfonyl)-L-3,3-dimethyl-4-thiaprolyl]-O-[1-methylpiperazin-4-ylcarbonyl]-L-tyrosine isopropyl ester-treated animals is consistent with an observed regain of motor function. The starting point for treatment was a clinical score of 2, which denotes full bilateral hind limb paralysis. […] Functional recovery was never observed in control animals.

Where [4] appears, read: listed as N-[N-(3-pyridinesulfonyl)-L-3,3-dimethyl-4-thiaprolyl]-O-[1-methylpiperzain-4-yl.

T1 sequence (P13612 34-1032): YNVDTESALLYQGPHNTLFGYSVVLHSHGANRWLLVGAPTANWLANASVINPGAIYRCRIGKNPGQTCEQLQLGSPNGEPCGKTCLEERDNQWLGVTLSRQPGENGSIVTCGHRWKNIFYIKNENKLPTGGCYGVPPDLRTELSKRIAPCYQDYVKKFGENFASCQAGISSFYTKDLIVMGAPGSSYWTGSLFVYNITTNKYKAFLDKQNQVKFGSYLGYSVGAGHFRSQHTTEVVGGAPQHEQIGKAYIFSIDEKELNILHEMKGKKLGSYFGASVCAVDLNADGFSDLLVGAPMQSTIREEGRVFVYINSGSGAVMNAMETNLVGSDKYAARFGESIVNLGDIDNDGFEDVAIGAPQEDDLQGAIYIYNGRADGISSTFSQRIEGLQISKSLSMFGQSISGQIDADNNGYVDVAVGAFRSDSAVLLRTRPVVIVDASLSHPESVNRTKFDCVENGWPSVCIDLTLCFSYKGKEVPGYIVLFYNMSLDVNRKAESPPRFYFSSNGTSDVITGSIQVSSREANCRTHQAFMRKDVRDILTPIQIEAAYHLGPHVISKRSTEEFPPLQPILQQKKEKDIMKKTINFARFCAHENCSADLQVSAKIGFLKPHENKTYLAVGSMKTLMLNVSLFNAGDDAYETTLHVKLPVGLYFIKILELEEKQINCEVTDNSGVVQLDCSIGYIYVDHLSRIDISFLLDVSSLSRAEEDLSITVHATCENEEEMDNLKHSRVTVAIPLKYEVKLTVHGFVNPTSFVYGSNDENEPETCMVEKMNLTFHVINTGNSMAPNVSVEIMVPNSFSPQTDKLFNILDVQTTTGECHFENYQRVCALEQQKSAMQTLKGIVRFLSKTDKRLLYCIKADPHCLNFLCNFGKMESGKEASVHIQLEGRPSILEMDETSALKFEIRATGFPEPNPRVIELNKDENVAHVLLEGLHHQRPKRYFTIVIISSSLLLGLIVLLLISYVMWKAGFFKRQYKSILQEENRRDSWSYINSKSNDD
T1 sequence (P05556 21-798): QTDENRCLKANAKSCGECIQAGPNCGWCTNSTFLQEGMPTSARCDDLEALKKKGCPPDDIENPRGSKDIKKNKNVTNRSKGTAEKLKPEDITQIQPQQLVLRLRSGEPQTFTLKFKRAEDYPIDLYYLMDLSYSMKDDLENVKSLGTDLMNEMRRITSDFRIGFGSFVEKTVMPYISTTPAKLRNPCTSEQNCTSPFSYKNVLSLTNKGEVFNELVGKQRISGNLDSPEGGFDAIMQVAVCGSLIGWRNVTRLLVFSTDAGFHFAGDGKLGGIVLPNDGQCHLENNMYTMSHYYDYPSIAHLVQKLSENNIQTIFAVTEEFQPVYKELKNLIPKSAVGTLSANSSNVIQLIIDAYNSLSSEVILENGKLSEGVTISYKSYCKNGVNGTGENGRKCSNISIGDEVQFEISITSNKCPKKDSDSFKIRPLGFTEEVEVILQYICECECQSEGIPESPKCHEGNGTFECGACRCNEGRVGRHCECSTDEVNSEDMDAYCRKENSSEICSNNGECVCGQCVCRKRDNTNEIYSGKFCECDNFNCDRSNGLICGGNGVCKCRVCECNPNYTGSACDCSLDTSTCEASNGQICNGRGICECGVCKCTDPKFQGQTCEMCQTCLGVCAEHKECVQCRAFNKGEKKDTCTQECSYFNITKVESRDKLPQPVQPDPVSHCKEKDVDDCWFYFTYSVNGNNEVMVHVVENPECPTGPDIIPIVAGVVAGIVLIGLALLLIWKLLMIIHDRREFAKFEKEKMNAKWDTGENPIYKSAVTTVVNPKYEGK

`CC(C)OC(=O)[C@H](Cc1ccc(OC(=O)N2CCN(C)CC2)cc1)NC(=O)[C@H]1N(S(=O)(=O)c2cccnc2)CSC1(C)C` [N-[N-(3-pyridinesulfonyl)-L-3,3-dimethyl-4-thiaprolyl]-O-[1-methylpiperazin-4-ylcarbonyl]-L-tyrosine isopropyl ester]: the “mean pathological score in each of four categories (meningeal inflammation, perivascular infiltration, encephalitis/myelitis, demyelination) vs saline” value in series [1] (10-40 days treatment, p<0.001 two-way ANOVA) was “significant decrease”. The “spinal cord histology after 20 days of treatment (day 60 post immunization)” value in series [1] is recorded as “much smaller areas of demyelination”; in series [1] (setting [4]) it was “much smaller area of demyelination”. The “spinal cord histology after 40 days of treatment (day 80 post immunization)” value was “almost no meningeal and perivascular infiltration” in series [1]; “almost no meningeal and perivascular inflammation” in series [1] (setting [4]). The “mean combined pathological score after withdrawal for 10 days vs continued treatment” value in series [1] (p<0.05 Kruskal Wallis ANOVA on ranks with SNK test) is reported as “significantly higher”. Besides, the “cell number in spinal cord vs saline-treated animals” value in series [2] is on record as “significant reduction”; in series [2] (setting [4]) it was “fewer cells”. The “mean cell counts in spinal cord vs chronic control (d40) EAE animals” value in series [2] (after 20, 30 or 40 days of treatment, p<0.05) is “significantly lower”. Besides, the “mean cell count in spinal cord vs non-EAE animals” value in series [2] (after 40 days of treatment) is “not different”. Moreover, the “mean cell count in spinal cord 10 days after removal vs continuous treatment” value in series [2] is listed as “significant increase”; in series [2] (setting [4]) it was “significantly increased”. Further, the “rate of cell loss in spinal cord” value in series [2] (slope of linear regression of mean cell counts (r^2=0.90)) is 8 cells/mm^2/day. Moreover, at α4β1, the “receptor saturation levels maintained at all times” value is recorded as above 10 nm. The “percentage of plaques exhibiting remyelination (frequency of shadow plaques in the spinal cord)” value in series [3] (after 20 days of administration) came to 68%. Further, the “percentage of plaques exhibiting remyelination (incidence)” value turned out to be 77% in series [3] (after 30 days of administration) and 87% in series [3] (after 40 days of administration). For the same molecule, in series [3] (starting clinical score of 2 (full bilateral hind limb paralysis)), the “treated animals in which paralysis was reversed to a clinical score of 1” value is listed as 50%.
